Reference: PubChem BioAssay AID588567 (Sanford-Burnham Center for Chemical Genomics, 2011)
Calls of active or inactive are those of the source.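 How the source made its calls: active means mean IC50 at or below 20 µM; inactive means the rest.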

What follows are compounds tested on CHO-CHOP cells viability, ATPlite luminescence, 24 h (assay: CHO-CHOP cell viability loss – 24 h exposure, ATPlite luminescence, cytotoxicity control for UPR adaptive arm activator project, SAR follow-up (AID 588567)).

Compound	IC50
Cc1cc(Br)cc(NC(=O)c2cc(-c3ccncc3)nc3ccccc23)c1	64.8 µM (inactive)
Cc1ccc(NC(=O)c2cc(-c3ccncc3)nc3ccccc23)cc1	> 80 µM (inactive)
O=C(Nc1ccc(Cl)cc1)c1cc(-c2ccncc2)nc2ccccc12	63.7 µM (inactive)
Cc1nc(Nc2nc(-c3ccccc3)cc(=O)[nH]2)nc2ccccc12	30.2 µM (inactive)
O=C(Nc1ccc(Br)c(C(F)(F)F)c1)c1cc(-c2ccncc2)nc2ccccc12	50.1 µM (inactive)
O=C(Nc1ccc(F)cc1)c1cc(-c2ccncc2)nc2ccccc12	> 80 µM (inactive)
O=C(Nc1ccc(C(F)(F)F)cc1)c1cc(-c2ccncc2)nc2ccccc12	61.3 µM (inactive)
